According to US6579902B1, “Ribose-substituted aromatic amides, method for the production and use thereof as medicaments” (Aventis Pharma S.A., priority 1999, dated 2003):
Converted amounts (≈) assume the structure as drawn.

Columns and labels:
Type in all cases: cell-based
Entero faecalis 02D2UC5 = experiment: MIC, method of dilutions in a liquid medium; settings: incubation 24 hours at 37° C.
Procedure: (§1) A—Method of Dilutions in a Liquid Medium
(§2) A series of tubes was prepared in which the same quantity of sterile nutritive medium is distributed. Increasing quantities of the product to be studied are distributed in each tube, then each tube is seeded with a bacterial strain. After incubation for 24 hours in an oven at 37° C., the growth inhibition is evaluated by transillumination which allows the minimum inhibitory concentrations (M.I.C) to be determined, expressed in micrograms/cm^3.

Entero faecium 02D3IP2 = experiment: MIC, method of dilutions in a liquid medium; settings: incubation 24 hours at 37° C.
Procedure: as §1, §2

[1] = tested on: Staph. Coag. Negative 012HT5; experiment: MIC, method of dilutions in a liquid medium; settings: incubation 24 hours at 37° C.
Procedure: as §1, §2

Staph. aureus 011HT18 = experiment: MIC, method of dilutions in a liquid medium; settings: incubation 24 hours at 37° C.
Procedure: as §1, §2

[2] = tested on: Staph. epidermidis 0126042; experiment: MIC, method of dilutions in a liquid medium; settings: incubation 24 hours at 37° C.
Procedure: as §1, §2

[3] = tested on: Strepto pneumoniae 030BI2; experiment: MIC, method of dilutions in a liquid medium; settings: incubation 24 hours at 37° C.
Procedure: as §1, §2

Strepto. pyogene 02A1UC1 = experiment: MIC, method of dilutions in a liquid medium; settings: incubation 24 hours at 37° C.
Procedure: as §1, §2

bacterial strain = experiment: Activity in vitro, method of dilutions in a liquid medium (overall statement); settings: summary of the MIC test on the listed strains
Procedure: as §1, §2

Compound | MIC (Entero faecalis 02D2UC5) | MIC (Entero faecium 02D3IP2) | MIC [1] | MIC (Staph. aureus 011HT18) | MIC [2] | MIC [3] | MIC (Strepto. pyogene 02A1UC1) | activity in vitro (in words) (bacterial strain)
C#CCONC(=O)OC1C(O)C(c2ccc3c(O)c(NC(=O)c4ccccc4)c(=O)oc3c2C)OC2(CCCC2)C1OC (stereo not drawn) [EX. 10, [7R-(7.α.,8.β,9.β,10.α)]-(2-Propynyloxy)-carbamate of 8-Hydroxy-7-[4-hydroxy-8-methyl-2-oxo-3-(benzoylamino)-2H-1-benzopyran-7-yl)-10-methoxy-6-oxaspiro[4,5]decan-9-yl] | 1.2 µg/mL (≈ 2.02 µM) | 0.63 µg/mL (≈ 1.06 µM) | 0.08 µg/mL (≈ 0.135 µM) | ≦0.04 μg/ml | ≦0.04 μg/ml | ≦0.04 μg/ml | 0.16 µg/mL (≈ 0.27 µM) | excellent activity
C#CCONC(=O)OC1CC(c2ccc3c(O)c(NC(=O)C(C)C)c(=O)oc3c2C)OC2(CCCC2)C1OC (stereo not drawn) [EX. 11, [7R-(7.α.,8β.,9β.,10.α)]-(2-Propynyloxy)-carbamate of 7-[4-Hydroxy-8-methyl-3-[(2-methyl-1-oxo-propyl)amino]-2-oxo-2H-1-benzopyran-7-yl]-10-methoxy-6-oxaspiro[4,5]decan-9-yl] | 0.63 µg/mL (≈ 1.16 µM) | 0.32 µg/mL (≈ 0.59 µM) | 0.15 µg/mL (≈ 0.276 µM) | ≦0.04 μg/ml | ≦0.04 μg/ml | ≦0.04 μg/ml | 0.08 µg/mL (≈ 0.147 µM) | excellent activity
